# Reference: patent publication US20190183939A1, “CELL THERAPY USING MIDBRAIN-TYPE NEURAL STEM CELLS TREATED WITH VITAMIN C” (INDUSTRY-UNIVERSITY COOPERATION FOUNDATION HANYANG …, priority 2017, published 2019)
# What was measured:
# VM-NSCs = assay: DA neuron differentiation (TH+ cell yield) of in vitro expanded VM-NSCs; type: cell-based, rat
# Procedure: NSCs were cultured from rat embryo VMs (Sprague Dawley) at embryonic day 12 (E12) on 6-cm dishes or 24-well plates pre-coated with 15 μg/ml poly-L-ornithine (PLO; Sigma)/1 ug/ml fibronectin (FN; Sigma, St. Louis, Mo.) in serum-free N2 medium. NSCs were induced to proliferate by the mitogenic action of basic fibroblast growth factor (bFGF, 20 ng/ml, R&D Systems, Minneapolis, Minn.). The proliferating VM-NSCs cultured in 6-cm dishes were passaged at every 4th day in mitogen-supplemented medium with or without Vitamin C (VC; Sigma; 200 μM), glutathione reduced form (GSH; Sigma; 200 μM), vitamin E (alpha-tocopherol; Sigma; 200 μM), or N-acetylcysteine (NAc; Sigma; 100 μM). The expanded NSCs at the last day of each passage were induced to differentiate by withdrawing the mitogen and antioxidants from the media (for 2-16 days). Human NSC cultures were derived by in vitro differentiation of hESCs (H9) and cultured as described in the following reference. [Rhee, Y. H., Ko, J. Y., Chang, M. Y., Yi, S. H., Kim, D., Kim, C. H., Shim, J. W., Jo, A. Y., Kim, B. W., Lee, H., et al. (2011). Protein-based human iPS cells efficiently generate functional dopamine neurons and can treat a rat model of Parkinson disease. The Journal of clinical investigation 121, 2326-2335]. The human NSCs were expanded in ITS media supplemented with bFGF (20 ng/ml) in the presence or absence of VC for two NSC passages. Differentiation of the passaged human NSCs was induced by withdrawal of bFGF and VC in ITS supplemented with brain-derived neurotrophic factor (20 ng/ml; R&D Systems), glial cell line derived neurotrophic factor (20 ng/ml; R&D Systems), and dibutyryl cAMP (0.5 mmol/1; Sigma). Cultures were maintained at 37° C. in humidified 5% CO2 incubators.
# (§1) Cultured cells and cryosectioned brain slices were fixed with 4% paraformaldehyde (PFA), and blocked for 40 minutes in blocking solution (Blocking solution: 1% BSA+0.3% Triton X-100). For 5hmC and 5mC staining, the fixed cells were incubated with 2 N HCl for 20 minutes before the blocking reaction. The samples were incubated overnight at 4° C. in the blocking solution containing the primary antibodies listed in Supplemental Table 1. Secondary antibodies tagged with Alexa 488 (1:200, Invitrogen, Carlsbad, Calif.) and Cy3 (1:200, Jackson Immunoresearch Laboratories, West Grove, Pa.) were applied. Stained samples were mounted in Vectashield medium containing 40,6-diamidino-2-phenylindole (DAPI; Vector Laboratories, West Grove, Pa.) and analysed under an epifluorescence (Leica, Wetzlar, Germany) or confocal microscope (Leica TSP SP5).
# Immunostained cells were counted in 10-20 random areas of each culture coverslip using an eyepiece grid at a magnification of 200×. Data are expressed as the mean±SEM of three to eight independent cultures. […]
# [1] = test system: Foxa2 and Lmx1a promoters; assay: DIP-qPCR and ChIP-qPCR on Foxa2 and Lmx1a promoters; type: cell-based, rat
# Excerpt: Foxa2 and Nurr1 binding sites were identified using the Jaspar database (http://jaspar.genereg.net/) using an 80% score threshold. Predicted Foxa2 and Nurr1 binding sites were coupled with phylogenetic footprinting to eliminate spurious predictions with specified position weight matrix (PWM) settings, as described in the following reference. [Sandelin, A., and Wasserman, W. W. (2004). Constrained binding site diversity within families of transcription factors enhances pattern discovery bioinformatics. Journal of molecular biology 338, 207-215] (Table 2). ChIP and DIP assays were carried out as described in the following reference. [Prolonged membrane depolarization enhances midbrain dopamine neuron differentiation via epigenetic histone modifications. Stem Cells 29, 1861-1873]. Briefly, chromatin or genomic DNA was sheared to an average of 200-500 bp in length using a sonication Bioruptor (BMS, Seoul, Korea) and immunoprecipitated using the antibodies listed in Table 1. Immunoprecipitated DNA fragments were collected using magnetic beads (Invitrogen), purified, and subjected to real-time PCR using the primers listed in Table 3. The comparative cycle threshold method was used to quantify the results. Data were normalized to the input DNA.
# TET = assay: Tet enzyme activity in nuclear fraction; type: biochemical, rat; settings: VC 200 μM, 4 days of proliferation, D0
# Procedure: TET and JMJD3 activities were measured using Epigenase™ 5mC hydroxylase TET Activity/Inhibition Assay Kit and Epigenase™ JMJD3/UTX Demethylase Activity/Inhibition Assay Kit (Epigentek, Farmingdale, N.Y.), respectively. Briefly, cells from two 10 cm-dishes were harvested after 4 days of proliferation with or without VC (200 μM) treatment. Nuclear fractions were obtained from the cells using the EpiQuik nuclear extraction kit (Epigentek), and subjected to enzyme activity analyses.
# VM-NSC cultures = assay: Marker expression by immunocytochemistry and real-time PCR; type: cell-based, rat
# Procedure: as §1
# Immunostained cells were counted in 10-20 random areas of each culture coverslip using an eyepiece grid at a magnification of 200×. Data are expressed as the mean±SEM of three to eight independent cultures. For every figure, statistical tests are justified as appropriate. Statistical comparisons were made using Student's t-test (unpaired) or one-way ANOVA followed by Tukey's post hoc analysis using SPSS® Statistics 21; IBM Inc. The relevant n, P-values, and statistical analysis methods are indicated in each figure legend.
compound,measurement,setting,value
"O=C1O[C@H]([C@@H](O)CO)C(O)=C1O [VC, L-ascorbic acid]","expression of other DA phenotypes (VMAT2, AADC and DAT) in TH+ cells","VM-NSCs; P1, VC during expansion, differentiated 12 days without VC",Virtually all
same,TH+ cell yields (% of total DAPI+ cells),"VM-NSCs; VC 200 uM during expansion, P1 cultures, differentiated without VC, D6",10.85±1.2%
same,TH+ DA neuronal yields,"VM-NSCs; VC during expansion, P2 cultures, differentiated without VC",1.22±0.1%
same,prevention of DA neuron loss in passaged cultures,"VM-NSCs; antioxidant during expansion for 8 days (up to P1), differentiation without antioxidants",prevention of DA neuron loss
same,"binding of Tet1, Jmjd3 and Jmjd2 proteins to Foxa2 and Lmx1a promoter regions","[1]; ChIP-qPCR, D0",increased binding
same,5mC levels in Foxa2 promoter regions,"[1]; MeDIP-qPCR, VC-treated NSCs",reduced
same,5hmC in Foxa2 promoter regions,"[1]; hMeDIP-qPCR, VC-treated NSCs",more abundant
same,Tet enzyme activity in nuclear fractions,TET,greatly enhanced
same,percentage of cells expressing Foxa2 and Lmx1a,"VM-NSC cultures; D0, VC during expansion",enhanced
same,percentage of Nurr1+ cells,"VM-NSC cultures; D2, VC during proliferating NSC stage",greater
same,mRNA expression of GFAP and GFAP+ astrocyte yields,VM-NSC cultures; VC during proliferating VM-NSC stage,significantly enhanced
same,mRNA expression levels of TPH2 and GAD67,VM-NSC cultures; VC during proliferation,no significant alteration
same,"expression of Nestin, Sox2 and Otx2 markers",VM-NSC cultures; proliferating VM-NSC cultures,not altered
same,mRNA levels of Foxa2 and Lmx1a,"VM-NSC cultures; real-time PCR, D0",enhanced
